Holding throughout (assay type): binding
Assay [1] has as its target T1, panel of 442 kinases (Homo sapiens, UniProt P36888, D835H).
T1 construct: purchased KINOMEscan
T1 sequence (P36888 27-993 D835H): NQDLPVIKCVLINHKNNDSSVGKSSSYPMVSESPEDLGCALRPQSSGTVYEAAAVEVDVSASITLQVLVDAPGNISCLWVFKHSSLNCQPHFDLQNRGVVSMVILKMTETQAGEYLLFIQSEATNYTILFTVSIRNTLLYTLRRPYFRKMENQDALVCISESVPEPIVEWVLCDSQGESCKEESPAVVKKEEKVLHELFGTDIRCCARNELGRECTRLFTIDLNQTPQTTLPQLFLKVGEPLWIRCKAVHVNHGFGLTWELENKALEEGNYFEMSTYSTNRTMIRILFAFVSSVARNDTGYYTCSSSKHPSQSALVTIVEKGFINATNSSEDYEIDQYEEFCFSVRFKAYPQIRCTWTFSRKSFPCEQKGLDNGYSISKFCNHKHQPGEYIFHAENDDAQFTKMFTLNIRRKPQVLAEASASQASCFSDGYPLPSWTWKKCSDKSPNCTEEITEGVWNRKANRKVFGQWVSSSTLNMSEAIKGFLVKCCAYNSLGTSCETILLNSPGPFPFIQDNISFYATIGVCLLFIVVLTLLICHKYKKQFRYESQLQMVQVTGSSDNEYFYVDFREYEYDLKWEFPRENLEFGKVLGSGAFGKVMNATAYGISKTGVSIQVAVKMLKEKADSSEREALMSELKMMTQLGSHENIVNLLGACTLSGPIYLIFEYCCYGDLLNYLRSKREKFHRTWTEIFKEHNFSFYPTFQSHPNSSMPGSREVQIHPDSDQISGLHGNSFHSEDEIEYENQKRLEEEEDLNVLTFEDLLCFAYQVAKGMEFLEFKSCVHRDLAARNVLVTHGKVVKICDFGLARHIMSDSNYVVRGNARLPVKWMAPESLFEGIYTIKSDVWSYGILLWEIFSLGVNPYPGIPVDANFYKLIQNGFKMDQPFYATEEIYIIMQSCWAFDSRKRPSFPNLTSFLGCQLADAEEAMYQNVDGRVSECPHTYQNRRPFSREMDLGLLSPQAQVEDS
The conditions noted are these: Compound Concentration 10 µM. An excerpt:
(§1) We assessed the selectivity of members of this scaffold using the KINOMEscan methodology across a near comprehensive panel of 442 kinases [[18,27]].

Assay [2] has as its target T2, panel of 442 kinases (Homo sapiens, UniProt Q86UE8).
T2 construct: purchased KINOMEscan
Particulars: kinase TLK2; compound concentration 10 µM.
Excerpt: as §1

Assay [3] concerns the target T3, panel of 442 kinases (Homo sapiens, UniProt Q96RR4).
T3 construct: purchased KINOMEscan
The conditions noted are these: Compound Concentration 10 µM.
Excerpt: as §1

This note sets out measurements from paper PMC3914206.

T2 sequence (Q86UE8 whole entry): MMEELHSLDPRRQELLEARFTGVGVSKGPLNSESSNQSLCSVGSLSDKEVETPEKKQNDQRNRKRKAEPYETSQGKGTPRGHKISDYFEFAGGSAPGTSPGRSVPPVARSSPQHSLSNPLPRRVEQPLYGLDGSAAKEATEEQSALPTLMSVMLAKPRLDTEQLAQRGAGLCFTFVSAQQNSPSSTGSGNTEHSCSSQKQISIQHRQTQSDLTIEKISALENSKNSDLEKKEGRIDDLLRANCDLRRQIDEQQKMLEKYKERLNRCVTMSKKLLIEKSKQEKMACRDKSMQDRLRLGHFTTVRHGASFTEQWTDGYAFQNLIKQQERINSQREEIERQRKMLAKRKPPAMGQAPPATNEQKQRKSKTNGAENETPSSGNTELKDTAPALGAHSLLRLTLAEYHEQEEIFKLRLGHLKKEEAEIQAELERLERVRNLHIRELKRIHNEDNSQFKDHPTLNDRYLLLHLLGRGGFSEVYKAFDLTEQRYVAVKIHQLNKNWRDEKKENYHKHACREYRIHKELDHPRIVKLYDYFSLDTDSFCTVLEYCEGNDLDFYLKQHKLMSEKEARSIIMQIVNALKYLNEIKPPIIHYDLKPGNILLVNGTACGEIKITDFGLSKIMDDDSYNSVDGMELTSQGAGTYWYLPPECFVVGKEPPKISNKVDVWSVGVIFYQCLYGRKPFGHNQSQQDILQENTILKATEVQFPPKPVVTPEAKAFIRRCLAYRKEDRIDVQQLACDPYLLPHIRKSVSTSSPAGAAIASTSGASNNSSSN
T3 sequence (Q96RR4 whole entry): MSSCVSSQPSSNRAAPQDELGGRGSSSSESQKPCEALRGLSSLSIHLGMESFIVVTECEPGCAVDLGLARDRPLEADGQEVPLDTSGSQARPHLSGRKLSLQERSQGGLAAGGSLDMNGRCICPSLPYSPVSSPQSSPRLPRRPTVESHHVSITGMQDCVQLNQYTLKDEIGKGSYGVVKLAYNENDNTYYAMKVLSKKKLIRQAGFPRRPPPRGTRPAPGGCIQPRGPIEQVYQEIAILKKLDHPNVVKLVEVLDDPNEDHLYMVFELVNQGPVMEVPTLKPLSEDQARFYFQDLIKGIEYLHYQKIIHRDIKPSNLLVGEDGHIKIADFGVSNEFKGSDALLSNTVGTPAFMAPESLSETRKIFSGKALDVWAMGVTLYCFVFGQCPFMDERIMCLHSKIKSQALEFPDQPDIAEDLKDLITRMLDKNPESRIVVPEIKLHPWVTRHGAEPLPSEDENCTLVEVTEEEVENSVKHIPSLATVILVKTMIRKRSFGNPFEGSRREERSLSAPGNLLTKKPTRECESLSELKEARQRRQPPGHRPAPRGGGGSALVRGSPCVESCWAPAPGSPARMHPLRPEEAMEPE

As to `CCOc1cc(C(=O)N2CCC(N3CCN(C)CC3)CC2)ccc1Nc1ncc2c(n1)N(C1CCCC1)c1ccccc1C(=O)N2C` [Compound 26], at panel of 442 kinases [1], the “KINOMEscan: FLT3(D835H)” value stood at 100. Moreover, the “% Ctrl, TLK2” value at panel of 442 kinases [2] is recorded as 100 % Ctrl. On panel of 442 kinases [3], the “KINOMEscan: CAMKK2” value stood at 100.
Regarding `COc1cc(C(=O)N2CCC(N3CCN(C)CC3)CC2)ccc1Nc1ncc2c(n1)N1CCc3cccc(c31)C(=O)N2C` [Compound 24], the “% Ctrl, TLK2” value on panel of 442 kinases [2] is 98 % Ctrl. For the same compound, the “KINOMEscan: CAMKK2” value on panel of 442 kinases [3] is listed as 52.
In the case of `COc1cc(C(=O)N2CCC(N3CCN(C)CC3)CC2)ccc1Nc1ncc2c(n1)N(C)c1ccccc1C(=O)N2C` [15 (LRRK2-IN-1)], the “KINOMEscan: FLT3(D835H)” value on panel of 442 kinases [1] was found to be 100. For the same compound, the “% Ctrl, TLK2” value at panel of 442 kinases [2] is listed as 99 % Ctrl. Also, at panel of 442 kinases [3], the “KINOMEscan: CAMKK2” value came to 31.
As to `COc1cc(C(=O)N2CCC(N3CCN(C)CC3)CC2)ccc1Nc1ncc2c(n1)N(C1CCCC1)c1ccccc1C(=O)N2C` [Compound 25, 11-cyclopentyl-2-((2-methoxy-4-(4-(4-methylpiperazin-1-yl)piperidine-1-carbonyl)phenyl)amino)-5-methyl-5H-benzo[e]pyrimido[5,4-b][1,4]diazepin-6(11H)-one], on panel of 442 kinases [1], the “KINOMEscan: FLT3(D835H)” value is on record as 100. In addition, the “% Ctrl, TLK2” value at panel of 442 kinases [2] was determined as 94 % Ctrl. Also, the “KINOMEscan: CAMKK2” value at panel of 442 kinases [3] was determined as 78.
